Measured values reported in patent US10189863B2, “5,6-dihydro-4H-benzo[b]thieno-[2,3-d]azepine derivatives” (PULMOCIDE LIMITED, priority 2014, dated 2019).
pIC50: −log10 of the molar value.

What was measured:
RSV B Washington strain = assay: Assessment of RSV induced CPE in HEp2 cells (RSV B Washington strain); format: cell-based; conditions: human respiratory syncytial virus, HEp2 cells; for pIC50: HEp-2, 144 h, 1 MOI, 6 days, read-out: RSV B CPE IC50; for inhibition at 1 µg/mL: Inhibition (%) at 1 μg/mL, read-out: RSV B CPE % Inhibition
Experimental: (§1) Assessment of RSV Induced CPE in HEp2 Cells
(§2) HEp2 cells were seeded (10^3/well/50 μL) in 384-well plates (Catalogue number 353962, BD Falcon, Oxford, UK) in […] containing 2 mM L-glutamine and 1 mM sodium pyruvate one day before infection. RSV A2 strain (#0709161v, NCPV, Public Health England, Wiltshire) or RSV B Washington strain (VR-1580, ATCC, Manassas, Va. 20108) virus solutions were prepared in serum free-DMEM with 2 mM L-glutamine and 1 mM sodium pyruvate, and then added (50 μL/well) to achieve a final virus concentration of 1 MOI. Simultaneously test compounds (0.5 μL DMSO solution) were added to 100 μL of HEp2 cell culture with virus solution to provide a final DMSO solution of 0.5%. Plates were incubated (37° C./5% CO2) for 5 days for studies using RSV A2 strain or 6 days for those using RSV B strain, and then resazurin sodium salt (5 μL of 0.03% solution; Sigma-Aldrich, Dorset, UK) was added to each well and the plate incubated for a further 6 hr (37° C./5% CO2). The fluorescence of each well [545 nm (excitation)/590 nm (emission)] was determined using a multi-scanner (Clariostar: BMG, Buckinghamshire, UK). The percentage inhibition for each well was calculated and the IC50, IC75 and IC90 values were calculated from the concentration-response curve generated for each test compound.

[1] = Cell viability: resazurin assay; format: cell-based, human; conditions: human, HEp2 cells
Experimental: Cell Viability: Resazurin Assay
HEp2 cells were seeded in 384-well plates (10^3/well/50 μL; BD Falcon Ref 353962) in FBS DMEM (5%, containing 2 mM L-glutamine and 1 mM sodium pyruvate) one day before experimentation. Serum-free DMEM (50 μL) was added to test wells while for control wells the media was removed and sterile water (100 μL) was added. Test compounds (0.5 μL DMSO solution) were added to give a final DMSO concentration of 0.5%. Hep2 cells were incubated with each test compound for 5 days (37° C./5% CO2 in 5% FBS) and then resazurin stock solution (5 μL; 0.03%) was added to each well and the plate incubated for a further 6 hr (37° C./5% CO2). The fluorescence of each well at 545 nm (excitation) and 590 nm (emission) was determined using a multi-scanner (Clariostar: BMG Labtech). The percentage loss of cell viability was calculated for each well relative to vehicle (0.5% DMSO) treatment.
Any apparent increase in cell viability associated with test compound treatment relative to vehicle is consequently tabulated as a negative percentage. Where appropriate, a CC50 value was calculated from the concentration-response curve generated from the concentration-response curve for each test compound.

RSV A2 strain = assay: Assessment of RSV induced CPE in HEp2 cells (RSV A2 strain); format: cell-based; conditions: human respiratory syncytial virus, HEp2 cells; for pIC50: HEp-2, 120 h, 1 MOI, 5 days, read-out: RSV A2 CPE IC50; for inhibition at 0.1 µg/mL / inhibition at 0.01 µg/mL: HEp-2; for inhibition at 0.1 µg/mL: Inhibition (%) at 0.1 μg/mL, read-out: RSV A2 CPE % Inhibition; for inhibition at 0.01 µg/mL: Inhibition (%) at 0.01 μg/mL
Experimental: as §1, §2

Row | SMILES | pIC50 (RSV B Washington strain) | inhibition at 1 µg/mL (RSV B Washington strain; HEp-2) [%] | CC50 at 5 days [1] [nM] | pIC50 (RSV A2 strain) | inhibition at 0.1 µg/mL (RSV A2 strain) [%] | inhibition at 0.1 µg/mL (RSV B Washington strain; HEp-2, Inhibition (%) at 0.1 μg/mL) [%] | inhibition at 0.01 µg/mL (RSV A2 strain) [%]
1 | Cc1ccccc1NC(=O)c1cc2c(s1)-c1ccccc1N(C(=O)c1ccc(NC(=O)c3cc(C)c(C)nc3N3CC4(CCOCC4)C3)cc1)CC2 [Example 42, 6-(4-(5,6-dimethyl-2-(7-oxa-2-azaspiro[3.5]nonan-2-yl)nicotinamido)benzoyl)-N-(o-tolyl)-5,6-dihydro-4H-benzo[b] thieno[2,3-d]azepine-2-carboxamide] | 7.22 | 80 | > 14000 | 9.85 | 97 | – | –
2 | Cc1cc(C(=O)Nc2ccc(C(=O)N3CCc4cc(C(=O)Nc5ccccc5F)sc4-c4ccccc43)cc2)c(N2CC3(CCOCC3)C2)nc1C [Example 43, 6-(4-(5,6-dimethyl-2-(7-oxa-2-azaspiro[3.5]nonan-2-yl)nicotinamido)benzoyl)-N-(2-fluorophenyl)-5,6-dihydro-4H-benzo[b]thieno[2,3-d]azepine-2-carboxamide] | 7.23 | 72 | > 14000 | 9.92 | 100 | – | –
3 | Cc1cc(C(=O)Nc2ccc(C(=O)N3CCc4cc(C(=O)Nc5c(C)cccc5F)sc4-c4ccccc43)cc2)c(N2CC3(CCOCC3)C2)nc1C [Example 44, 6-(4-(5,6-dimethyl-2-(7-oxa-2-azaspiro[3.5]nonan-2-yl)nicotinamido)benzoyl)-N-(2-fluoro-6-methylphenyl)-5,6-dihydro-4H-benzo[b]thieno[2,3-d]azepine-2-carboxamide] | 7.79 | 76 | > 13700 | 9.89 | 100 | – | –
4 | Cc1cc(C(=O)Nc2ccc(C(=O)N3CCc4cc(C(=O)Nc5ccc(F)cc5F)sc4-c4ccccc43)cc2)c(N2CC3(CCOCC3)C2)nc1C [Example 45, N-(2,4-difluorophenyl)-6-(4-(5,6-dimethyl-2-(7-oxa-2-azaspiro[3.5]nonan-2-yl)nicotinamido)benzoyl)-5,6-dihydro-4H-benzo[b]thieno[2,3-d]azepine-2-carboxamide] | 7.08 | 68 | > 13600 | 9.96 | 100 | – | –
5 | Cc1cc(C(=O)Nc2ccc(C(=O)N3CCc4cc(C(=O)Nc5c(F)cccc5Cl)sc4-c4ccccc43)cc2)c(N2CC3(CCOCC3)C2)nc1C [Example 46, N-(2-chloro-6-fluorophenyl)-6-(4-(5,6-dimethyl-2-(7-oxa-2-azaspiro[3.5]nonan-2-yl)nicotinamido)benzoyl)-5,6-di-hydro-4H-benzo[b]thieno[2,3-d]azepine-2-carboxamide] | 8.15 | 86 | > 13300 | 10.16 | 100 | – | –
6 | Cc1cnc(N2CC3(CCOCC3)C2)c(C(=O)Nc2ccc(C(=O)N3CCc4cc(C(=O)Nc5c(F)cccc5F)sc4-c4ccccc43)cc2)c1 [Example 47, N-(2,6-difluorophenyl)-6-(4-(5-methyl-2-(7-oxa-2-aza-spiro[3.5]nonan-2-yl)nicotinamido)benzoyl)-5,6-dihydro-4H-benzo[b]thieno[2,3-d]azepine-2-carboxamide] | 8.24 | – | > 13900 | 9.89 | – | 100 | 100
7 | Cc1cnc(N2CC3(CCOCC3)C2)c(C(=O)Nc2ccc(C(=O)N3CCc4cc(C(=O)Nc5c(F)cc(F)cc5F)sc4-c4ccccc43)cc2)c1 [Example 48, 6-(4-(5-methyl-2-(7-oxa-2-azaspiro[3.5]nonan-2-yl)nicotinamido)benzoyl)-N-(2,4,6-trifluorophenyl)-5,6-dihydro-4H-benzo[b]thieno[2,3-d]azepine-2-carboxamide] | 8.82 | 100 | > 13600 | 9.85 | 100 | – | –
8 | Cc1ccc(C(=O)Nc2ccc(C(=O)N3CCc4cc(C(=O)Nc5c(F)cccc5F)sc4-c4ccccc43)cc2)c(N2CC3(CCOCC3)C2)n1 [Example 49, N-(2,6-difluorophenyl)-6-(4-(6-methyl-2-(7-oxa-2-aza-spiro[3.5]nonan-2-yl)nicotinamido)benzoyl)-5,6-dihydro-4H-benzo[b]thieno[2,3-d]azepine-2-carboxamide] | 8.89 | 100 | > 13900 | 9.89 | 100 | – | –
9 | Cc1ccc(C(=O)Nc2ccc(C(=O)N3CCc4cc(C(=O)Nc5c(F)cc(F)cc5F)sc4-c4ccccc43)cc2)c(N2CC3(CCOCC3)C2)n1 [Example 50, 6-(4-(6-methyl-2-(7-oxa-2-azaspiro[3.5]nonan-2-yl)nicotinamido)benzoyl)-N-(2,4,6-trifluorophenyl)-5,6-dihydro-4H-benzo[b]thieno[2,3-d]azepine-2-carboxamide] | 8.77 | 100 | > 13600 | 9.89 | 100 | – | –
10 | Cc1cnc(N2CC3(CCOCC3)C2)c(C(=O)Nc2ccc(C(=O)N3CCc4cc(C(=O)Nc5c(F)cccc5C#N)sc4-c4ccccc43)cc2)c1 [Example 51, N-(2-cyano-6-fluorophenyl)-6-(4-(5-methyl-2-(7-oxa-2-azaspiro[3.5]nonan-2-yl)nicotinamido)benzoyl)-5,6-dihydro-4H-benzo[b]thieno[2,3-d]azepine-2-carboxamide] | 8.00 | 99 | > 13800 | 8.96 | 98 | – | –
11 | Cc1cnc(N2CC3(CCOCC3)C2)c(C(=O)Nc2ccc(C(=O)N3CCc4cc(C(=O)Nc5c(O)cccc5F)sc4-c4ccccc43)cc2)c1 [Example 52, N-(2-fluoro-6-hydroxyphenyl)-6-(4-(5-methyl-2-(7-oxa-2-azaspiro[3.5]nonan-2-yl)nicotinamido)benzoyl)-5,6-dihydro-4H-benzo[b]thieno[2,3-d]azepine-2-carboxamide] | 8.48 | 100 | > 13900 | 10.17 | 96 | – | –
12 | COc1cccc(F)c1NC(=O)c1cc2c(s1)-c1ccccc1N(C(=O)c1ccc(NC(=O)c3cc(C)cnc3N3CC4(CCOCC4)C3)cc1)CC2 [Example 53, N-(2-fluoro-6-methoxyphenyl)-6-(4-(5-methyl-2-(7-oxa-2-azaspiro[3.5]nonan-2-yl)nicotinamido)benzoyl)-5,6-di-hydro-4H-benzo[b]thieno[2,3-d]azepine-2-carboxamide] | 7.84 | 96 | > 13700 | 9.64 | 94 | – | –
13 | Cc1cnc(N2CC3(CCOCC3)C2)c(C(=O)Nc2ccc(C(=O)N3CCc4cc(C(=O)Nc5c(F)cccc5OCCO)sc4-c4ccccc43)cc2)c1 [Example 54, N-(2-fluoro-6-(2-hydroxyethoxy)phenyl)-6-(4-(5-methyl-2-(7-oxa-2-azaspiro[3.5]nonan-2-yl)nicotinamido)benzoyl)-5,6-dihydro-4H-benzo[b]thieno[2,3-d]azepine-2-carboxamide] | 7.05 | 100 | > 13100 | 8.82 | – | – | 100
14 | COCCOc1cccc(F)c1NC(=O)c1cc2c(s1)-c1ccccc1N(C(=O)c1ccc(NC(=O)c3cc(C)cnc3N3CC4(CCOCC4)C3)cc1)CC2 [Example 55, N-(2-fluoro-6-(2-methoxyethoxy)phenyl)-6-(4-(5-methyl-2-(7-oxa-2-azaspiro[3.5]nonan-2-yl)nicotinamido)benzoyl)-5,6-dihydro-4H-benzo[b]thieno[2,3-d]azepine-2-carboxamide] | 7.79 | 100 | > 12900 | 9.82 | – | – | 100
